Patent US20240050562A1, “INHIBITOR OF CELL PROLIFERATION IN OBINUTUZUMAB RESISTANT CD20-POSITIVE CANCER, AND MEDICINAL COMPOSITION, MEDICINE, PRODUCTION, METHOD FOR INHIBITING CELL PROLIFERATION, THERAPEUTIC METHOD, TYPE II ANTI-CD20 ANTIBODY, COMPOUNDS, COMBINATION OF SAME, ENHANCER AND INDUCER, EACH RELATING THERETO” (Chugai Seiyaku Kabushiki Kaisha, priority 2019, published 2024)
Where a SMILES comes first, the peptide text is derived from it. The star is where a group is joined. Cbz = O=C(OCc1ccccc1)*; CH2F = FC*

Experiments:
[1] = tested on: obinutuzumab-directed cell death-tolerant clone 3A4; conditions: obinutuzumab 1 μg/mL + 4-hydroperoxycyclophosphamide 100 nM, doxorubicin 10 nM, vincristine 1 nM or prednisolone 1 μM, four days, <0 supra-additive, 0 additive, >0 sub-additive
Method: (§1) After four days of culturing at 37° C. in the presence of 5% CO2, the number of viable cells was measured using CellTiter-Glo 3D Cell Viability Assay (Promega). […] The effects of the combined use were assessed by numerical values obtained as follows: login (proportion of cell proliferation when both agents were added)—log10 (proportion of cell proliferation when obinutuzumab was added alone)—log10 (proportion of cell proliferation when the anti-cancer agent was added alone). Here, for the combined use, a numerical value of less than 0 means a supra-additive effect, 0 means an additive effect, and greater than 0 means a sub-additive effect (J Biopharm Stat. 2012; 22(3): 535-543).

[2] = tested on: obinutuzumab-directed cell death-tolerant clones 1A2, 1D2, 3A4 (derived from SU-DHL-4)
Method: The human germinal center B-cell-like diffuse large B-cell lymphoma cell line SU-DHL-4 was treated with 100 μg/mL of N-ethyl-N-nitrosourea for 24 hours to randomly introduce gene mutations. Thereafter, obinutuzumab was added to 200 μg/mL, and culturing was carried out at 37° C. in the presence of 5% CO2 for three weeks.
as §1

[3] = tested on: obinutuzumab-directed cell death-tolerant clone 1A2; conditions: four days; for effect of combined use with obinutuzumab (Bliss independence): log10(both agents) - log10(obinutuzumab alone) - log10(anti-cancer agent alone): obinutuzumab 1 μg/mL + 4-hydroperoxycyclophosphamide 100 nM, doxorubicin 10 nM, vincristine 1 nM or prednisolone 1 μM, <0 supra-additive, 0 additive, >0 sub-additive
Method: as §1
The obinutuzumab-directed cell death-tolerant clone 1A2 was seeded at 1×10^4 cells per well in 96-well plates, and obinutuzumab (0.00015-10 μg/mL) and prednisolone (0.2, 1 μM) were added. After four days of culturing at 37° C. in the presence of 5% CO2, the number of viable cells was measured using CellTiter-Glo 3D Cell Viability Assay (Promega).
(§2) After four days of culturing at 37° C. in the presence of 5% CO2, the number of viable cells was measured using CellTiter-Glo 3D Cell Viability Assay (Promega).
as §2

[4] = tested on: obinutuzumab-directed cell death-tolerant clone 1D2; assay: combined-use cell proliferation test (CellTiter-Glo 3D), clone 1D2; type: cell-based, human; conditions: obinutuzumab 1 μg/mL + 4-hydroperoxycyclophosphamide 100 nM, doxorubicin 10 nM, vincristine 1 nM or prednisolone 1 μM, four days, <0 supra-additive, 0 additive, >0 sub-additive
Method: as §1

[5] = tested on: obinutuzumab-directed cell death-tolerant clone 1A2; type: cell-based; conditions: Z-VAD-FMK 40 μM added to obinutuzumab 1 μg/mL + doxorubicin 10 nM, 72 hours, FIG. 7
Method: […] After 72 hours of culturing at 37° C. in the presence of 5% CO2, cells were stained with APO-BrdU TUNEL Assay Kit (Thermo Fisher).
After 72 hours of culturing at 37° C. in the presence of 5% CO2, cells were stained with APO-BrdU TUNEL Assay Kit (Thermo Fisher).

[6] = tested on: CD20 on RL parent and ADCC-tolerant cell lines; assay: CD20 expression by FACS; type: cell-based, human; conditions: prednisolone 10 μM, 72 hours; parent RL cell line and tolerant cell lines; FIG. 10
Method: The parent RL cell line and the tolerant cell lines were seeded at 4×10^5 cells per plate, prednisolone (10 μM) was added, and the cells were cultured at 37° C. for 72 hours. The cells were collected and stained with a control IgG antibody or an anti-CD20 antibody (BD Biosciences), and analysis of CD20 expression was carried out using FACS Fortessa (Becton Dickinson).

[7] = tested on: RL parent cell line and ADCC-tolerant cell lines RL-E300-1, RL-E300-2, RL-E300-8, RL-E300-22; assay: ADCC sensitivity (calcein release, CD16(158V)/NK-92 effector cells); type: cell-based, human; conditions: ET ratio 1:1
Method: Obinutuzumab was added at a concentration of 0.0001-100 ng/mL. CD16(158V)/NK-92 cells were added as effector cells to achieve an ET ratio of 1:1 and the cells were incubated at 37° C. for four hours. In addition, for Maximum Lysis, 1% Triton X-100 was added. After the plates were centrifuged and the supernatants were collected, calcein fluorescence was measured using a plate reader. ADCC sensitivity was assessed with the expression (measurement−background)/(Maximum Lysis−background)×100 (%).
The parent RL cell line and the tolerant cell lines were pre-cultured, with prednisolone (10 μM) added, at 37° C. for 72 hours. […] Obinutuzumab was added at a concentration of 1 ng/mL. CD16(158V)/NK-92 cells were added thereto as effector cells to achieve an ET ratio of 1:1, and the cells were incubated at 37° C. for four hours. In addition, for Maximum Lysis, 1% Triton X-100 was added. After the plates were centrifuged and the supernatants were collected, calcein fluorescence was measured using a plate reader. ADCC sensitivity was assessed with the expression (measurement−background)/(Maximum Lysis−background)×100 (%).

SU-DHL-4 = assay: four-day cell proliferation test, parent cell line; type: cell-based, human; conditions: SU-DHL-4, four-day cell proliferation test

O=P1(N(CCCl)CCCl)NC(OO)CCO1 (centres unmarked) [4-hydroperoxycyclophosphamide]
effect of combined use with obinutuzumab (Bliss independence): log10(both agents) - log10(obinutuzumab alone) - log10(anti-cancer agent alone) [1]: 0.00
effect of combined use with obinutuzumab, in words ([2]; all tolerant clones, combined with obinutuzumab 1 μg/mL, four days): approximately additive effects
effect of combined use with obinutuzumab (Bliss independence): log10(both agents) - log10(obinutuzumab alone) - log10(anti-cancer agent alone) [3]: −0.03
effect of combined use with obinutuzumab (Bliss independence): log10(both agents) - log10(obinutuzumab alone) - log10(anti-cancer agent alone) [4]: 0.02

COC(=O)C[C@H](NC(=O)[C@H](C)NC(=O)[C@@H](NC(=O)OCc1ccccc1)C(C)C)C(=O)CF [Z-VAD-FMK] (Cbz-Val-Ala-Asp(OMe)-CH2F)
DNA fragmentation (TUNEL) induced by obinutuzumab and doxorubicin, with pan caspase inhibitor [5]: suppressed
cell proliferation ratio with pan caspase inhibitor ([3]; Z-VAD-FMK 40 μM added to obinutuzumab 0.1, 1 μg/mL + doxorubicin 10 nM, FIG. 8): suppressed the doxorubicin-enhanced inhibitory activity of obinutuzumab on cell proliferation

C[C@]12C=CC(=O)C=C1CC[C@@H]1[C@@H]2[C@@H](O)C[C@@]2(C)[C@H]1CC[C@]2(O)C(=O)CO [prednisolone]
CD20 expression [6]: enhances CD20 expression
ADCC sensitivity after prednisolone pre-treatment ([7]; prednisolone 10 μM 72 hours pre-culture, then obinutuzumab 1 ng/mL, parent and tolerant cell lines, FIG. 11): enhances ADCC sensitivity
effect of combined use with obinutuzumab (Bliss independence): log10(both agents) - log10(obinutuzumab alone) - log10(anti-cancer agent alone) [4]: −0.10

CC[C@]1(O)C[C@H]2CN(CCc3c([nH]c4ccccc34)[C@@](C(=O)OC)(c3cc4c(cc3OC)N(C=O)[C@H]3[C@@](O)(C(=O)OC)[C@H](OC(C)=O)[C@]5(CC)C=CCN6CC[C@]43[C@@H]65)C2)C1 [vincristine]
effect of combined use with obinutuzumab (Bliss independence): log10(both agents) - log10(obinutuzumab alone) - log10(anti-cancer agent alone) [3]: −0.35
effect of combined use with obinutuzumab (Bliss independence): log10(both agents) - log10(obinutuzumab alone) - log10(anti-cancer agent alone) [4]: −0.10

obinutuzumab: glycoengineered, genetically recombinant humanized anti-CD20 monoclonal antibody, type II anti-CD20 antibody
obinutuzumab concentration for 50% cell proliferation inhibition (SU-DHL-4): 0.037 µg/mL
obinutuzumab concentration for 50% cell proliferation inhibition [2]: at least 200 μg/mL
ADCC sensitivity of ADCC-tolerant cell lines compared with the parent cell line ([7]; obinutuzumab 0.0001-100 ng/mL, four hours, FIG. 9): significant reduction in ADCC sensitivity
